Experimental data taken from PubChem BioAssay AID286 (DTP/NCI, 2004).
Where “and” joins values, the source holds several entries; their conditions need not be identical. Identical values can stand only once. Inconclusive results and toxic doses are left out.

Test system: BDF1 mice, M5076 sarcoma ip, median survival T/C
Experiment: NCI In Vivo Anticancer Drug Screen. Data for tumor model Sarcoma M5076 (intraperitoneal) in B6D2F1 (BDF1) mice
Conditions: endpoint: median survival time, higher = longer survival
Procedure: The antitumor activity of compounds was measured in mice bearing transplantable tumors. Survival or tumor size were measured and the results are expressed as the measurement made in the treated group (T) divided by the measurement made in the vehicle treated control group (C). The tumor model used in this assay is Sarcoma M5076 (intraperitoneal) in B6D2F1 (BDF1) mice

[1] = dose: 5.0 mg/kg/injection, schedule: Q04DX004 (ip), vehicle: water
[2] = dose: 10.0 mg/kg/injection, schedule: Q04DX004 (ip), vehicle: water
[3] = dose: 25.0 mg/kg/injection, schedule: Q04DX004 (ip), vehicle: saline with Tween-80
[4] = dose: 50.0 mg/kg/injection, schedule: Q04DX004 (ip), vehicle: saline with Tween-80
[5] = dose: 100.0 mg/kg/injection, schedule: Q04DX004 (ip), vehicle: saline with Tween-80
[6] = dose: 100.0 mg/kg/injection, schedule: Q04DX004 (ip), vehicle: saline
[7] = dose: 200.0 mg/kg/injection, schedule: Q04DX004 (ip), vehicle: saline with Tween-80
[8] = dose: 400.0 mg/kg/injection, schedule: Q04DX004 (ip), vehicle: saline with Tween-80

O=c1n(CC2CO2)c(=O)n(CC2CO2)c(=O)n1CC1CO1 (stereo unspecified)
T/C (dose: 13.0 mg/kg/injection, schedule: Q04DX005 (ip), vehicle: saline): 191 % of control
T/C (dose: 21.6 mg/kg/injection, schedule: Q04DX005 (ip), vehicle: saline): 270 % of control
T/C (dose: 36.0 mg/kg/injection, schedule: Q04DX005 (ip), vehicle: saline): 377 % of control
T/C (dose: 60.0 mg/kg/injection, schedule: Q04DX005 (ip), vehicle: saline): 377 % of control

CCCCCCCCCCCCCCCC(=O)O[C@@H]1[C@@H](C)[C@@]2(O)[C@@H](C=C(CO)C[C@]3(O)C(=O)C(C)=C[C@@H]23)[C@H]2[C@]1(OC(C)=O)[C@]2(C)CO
T/C (dose: 62.5 micrograms/kg/injection, schedule: Q01DX009 (ip), vehicle: distilled water + Tween-80): 117 % of control
T/C (dose: 125.0 micrograms/kg/injection, schedule: Q01DX009 (ip), vehicle: distilled water + Tween-80): 121 % of control
T/C (dose: 250.0 micrograms/kg/injection, schedule: Q01DX009 (ip), vehicle: distilled water + Tween-80): 122 % of control

CCN(CC)CCNc1ccc(C)c2sc3ccccc3c(=O)c12
T/C [1]: 113 % of control
T/C [2]: 112 % of control
T/C (dose: 20.0 mg/kg/injection, schedule: Q04DX004 (ip), vehicle: water): 103 % of control
T/C (dose: 40.0 mg/kg/injection, schedule: Q04DX004 (ip), vehicle: water): 112 % of control
T/C (dose: 160.0 mg/kg/injection, schedule: Q04DX004 (ip), vehicle: water): 108 % of control

CCC(C)C(N)C(=O)NC(CC(N)=O)C(=O)NC(CC(C)C)C(=O)NC(CCCCN)C(=O)NC(C)C(=O)NC(CC(C)C)C(=O)NC(C)C(=O)NC(C)C(=O)NC(CC(C)C)C(=O)NC(C)C(=O)NC(CCCCN)C(=O)NC(CCCCN)C(=O)NC(C(=O)NC(CC(C)C)C(N)=O)C(C)CC (stereo unspecified)
T/C (dose: 1.56 mg/kg/injection, schedule: Q01DX009 (ip), vehicle: Klucel (hydroxypropylcellulose) (HPC)): 95 % of control
T/C (dose: 3.12 mg/kg/injection, schedule: Q01DX009 (ip), vehicle: Klucel (hydroxypropylcellulose) (HPC)): 101 % of control
T/C (dose: 6.25 mg/kg/injection, schedule: Q01DX009 (ip), vehicle: Klucel (hydroxypropylcellulose) (HPC)): 96 % of control
T/C (dose: 12.5 mg/kg/injection, schedule: Q01DX009 (ip), vehicle: Klucel (hydroxypropylcellulose) (HPC)): 98 % of control

Nc1n[nH]c2ccccc12
T/C (dose: 50.0 mg/kg/injection, schedule: Q04DX004 (ip), vehicle: acid diluted with saline): 112 % of control
T/C (dose: 100.0 mg/kg/injection, schedule: Q04DX004 (ip), vehicle: acid diluted with saline): 113 % of control
T/C (dose: 200.0 mg/kg/injection, schedule: Q04DX004 (ip), vehicle: acid diluted with saline): 112 % of control

O=Cc1c(O)c2ccccc2[nH]c1=O
T/C [3]: 98 % of control
T/C [4]: 124 % of control
T/C [5]: 101 % of control

Nc1nncs1
T/C [5]: 113 % of control
T/C [6]: 112 % of control and 116 % of control and 121 % of control
T/C (dose: 100.0 mg/kg/injection, schedule: Q04DX005 (ip), vehicle: saline with Tween-80): 112 % of control
T/C (dose: 100.0 mg/kg/injection, schedule: Q04DX005 (ip), vehicle: saline): 119 % of control
T/C [7]: 116 % of control
T/C (dose: 200.0 mg/kg/injection, schedule: Q04DX004 (ip), vehicle: saline): 112 % of control and 124 % of control
T/C (dose: 200.0 mg/kg/injection, schedule: Q04DX005 (ip), vehicle: saline with Tween-80): 121 % of control
T/C (dose: 200.0 mg/kg/injection, schedule: Q04DX005 (ip), vehicle: saline): 116 % of control and 124 % of control
T/C [8]: 119 % of control
T/C (dose: 400.0 mg/kg/injection, schedule: Q04DX004 (ip), vehicle: saline): 110 % of control
T/C (dose: 400.0 mg/kg/injection, schedule: Q04DX005 (ip), vehicle: saline): 109 % of control
T/C (dose: 800.0 mg/kg/injection, schedule: Q04DX004 (ip), vehicle: saline with Tween-80): 124 % of control
T/C (dose: 800.0 mg/kg/injection, schedule: Q04DX004 (ip), vehicle: saline): 106 % of control
T/C (dose: 800.0 mg/kg/injection, schedule: Q04DX005 (ip), vehicle: saline): 151 % of control

CN(Cc1cnc2nc(N)nc(N)c2n1)c1ccc(C(=O)N[C@@H](CCC(=O)O)C(=O)O)cc1
T/C (dose: 1.7 mg/kg/injection, schedule: Q01DX009 (ip), vehicle: sodium bicarbonate): 93 % of control
T/C (dose: 2.0 mg/kg/injection, schedule: Q04DX005 (ip), vehicle: sodium bicarbonate): 108 % of control
T/C (dose: 2.6 mg/kg/injection, schedule: Q01DX009 (ip), vehicle: sodium bicarbonate): 101 % of control
T/C (dose: 4.0 mg/kg/injection, schedule: Q04DX005 (ip), vehicle: sodium bicarbonate): 101 % of control
T/C (dose: 8.0 mg/kg/injection, schedule: Q04DX005 (ip), vehicle: sodium bicarbonate): 112 % of control

CC(=O)/C(=C\c1ccc(Cl)c(Cl)c1)C(=O)CCN(C)C
T/C (dose: 12.5 mg/kg/injection, schedule: Q04DX004 (ip), vehicle: saline): 100 % of control
T/C (dose: 25.0 mg/kg/injection, schedule: Q04DX004 (ip), vehicle: saline): 97 % of control
T/C (dose: 50.0 mg/kg/injection, schedule: Q04DX004 (ip), vehicle: saline): 101 % of control
T/C [6]: 86 % of control

Cc1c2ccncc2c(C)c2c1[nH]c1ccccc12
T/C (dose: 40.0 mg/kg/injection, schedule: Q04DX004 (ip), vehicle: saline with Tween-80): 170 % of control
T/C (dose: 80.0 mg/kg/injection, schedule: Q04DX004 (ip), vehicle: saline with Tween-80): 191 % of control

CC[N+](CC)(CC)CC
T/C (dose: 10.8 mg/kg/injection, schedule: Q04DX005 (ip), vehicle: saline with Tween-80): 172 % of control

C/C(=N\NC(=S)N1CC2CCC(CC2)C1)c1nccs1
T/C (dose: 12.5 mg/kg/injection, schedule: Q04DX004 (ip), vehicle: saline with Tween-80): 107 % of control
T/C [3]: 106 % of control

CC1(C)N=C(N)N=C(N)N1c1ccc(CCCCc2ccc(S(=O)(=O)F)cc2Cl)c(Cl)c1
T/C (dose: 5.0 mg/kg/injection, schedule: Q01DX009 (ip), vehicle: Klucel (hydroxypropylcellulose) (HPC)): 220 % of control
T/C (dose: 10.0 mg/kg/injection, schedule: Q01DX009 (ip), vehicle: Klucel (hydroxypropylcellulose) (HPC)): 251 % of control
T/C (dose: 20.0 mg/kg/injection, schedule: Q01DX009 (ip), vehicle: Klucel (hydroxypropylcellulose) (HPC)): 303 % of control
T/C (dose: 40.0 mg/kg/injection, schedule: Q01DX009 (ip), vehicle: Klucel (hydroxypropylcellulose) (HPC)): 388 % of control
T/C (dose: 40.0 mg/kg/injection, schedule: Q01DX009 (ip), vehicle: saline with Tween-80): 224 % of control
T/C (dose: 60.0 mg/kg/injection, schedule: Q01DX009 (ip), vehicle: saline with Tween-80): 224 % of control

CS(C)(O)NC(N)=O
T/C (dose: 50.0 mg/kg/injection, schedule: Q04DX004 (ip), vehicle: water): 104 % of control
T/C (dose: 100.0 mg/kg/injection, schedule: Q04DX004 (ip), vehicle: water): 102 % of control
T/C (dose: 200.0 mg/kg/injection, schedule: Q04DX004 (ip), vehicle: water): 104 % of control
T/C (dose: 400.0 mg/kg/injection, schedule: Q04DX004 (ip), vehicle: water): 100 % of control
T/C (dose: 800.0 mg/kg/injection, schedule: Q04DX004 (ip), vehicle: water): 107 % of control

O=P1(N(CCCl)CCCl)NCCCO1 (stereo unspecified)
T/C (dose: 10.0 mg/kg/injection, schedule: Q04DX005 (ip), vehicle: saline): 180 % of control

COC(=O)NC1C(C)OC(OC2C/C=C(/C)C3C=CC4C(OC5CC(OC6CCC(OC7CC(O)C(OC8CCC(O)C(C)O8)C(C)O7)C(C)O6)C(OC(C)=O)C(C)O5)C(C)CC(C)C4C3(C)/C(O)=C3/C(=O)OC4(CC(C=O)=CC(O)C4/C=C\2C)C3=O)CC1(C)[N+](=O)[O-] (stereo unspecified)
T/C (dose: 2.5 mg/kg/injection, schedule: Q04DX004 (ip), vehicle: water): 107 % of control
T/C [1]: 96 % of control
T/C [2]: 103 % of control

CC(=O)N(C)c1ccc(Nc2cc(C)[nH]c3ccc4ncnc4c23)cc1
T/C (dose: 5.0 mg/kg/injection, schedule: Q04DX004 (ip), vehicle: saline): 96 % of control

COC(=O)Nc1ccc(Cc2ccc(NC(=O)OC)cc2)cc1
T/C [4]: 89 % of control
T/C [5]: 103 % of control
T/C [7]: 118 % of control
T/C [8]: 185 % of control

Oc1cc(O)c(-c2c(O)cc(O)cc2O)c(O)c1 (tested in a mixture with another compound)
T/C (dose: 1.56 mg/kg/injection, schedule: Q01DX009 (ip), vehicle: saline): 118 % of control
T/C (dose: 3.12 mg/kg/injection, schedule: Q01DX009 (ip), vehicle: saline): 122 % of control
T/C (dose: 3.75 mg/kg/injection, schedule: Q01DX009 (ip), vehicle: saline): 119 % of control
T/C (dose: 6.25 mg/kg/injection, schedule: Q01DX009 (ip), vehicle: saline): 118 % of control
T/C (dose: 12.5 mg/kg/injection, schedule: Q01DX009 (ip), vehicle: saline): 123 % of control
T/C (dose: 15.0 mg/kg/injection, schedule: Q01DX009 (ip), vehicle: saline): 123 % of control
